Reference: patent publication US20010051630A1, “Use of hydroxylamine derivatives, and method and preparations for increasing the tolerance of field crops against weather stresses” (priority 1997, published 2001)
Marks after values point to notes of the source that are not given here.

Key:
soybean cv. Bólyi 44 = assay: Drought tolerance of soybeans; format: in vivo; details: 6 days hardening; 50 mg/liter in the water; 4 days without watering, one week regeneration
Protocol: Soybeans of soybean cv. Bólyi 44 were hardened for 6 days by withholding the water. This was followed by two days of watering, and the active agent was applied in the water. The concentration of the solution of the active agent was 50 mg/liter. After a 4-day-long cease of watering and a one week regeneration period, the number of surviving plants was recorded.
Watering was ceased for 10 days for a certain group of plants in the experiment. It was observed that almost every plant perished. Each of the 4 surviving plants had previously been treated with the active agent.

McCall soybeans = assay: CSVT, McCall soybeans; format: in vivo, soybean
Protocol: (§1) In this experiment the tolerance of maize, soybean and pepper seeds treated with the active agent against cold was tested. This test imposed temperature and oxygen deficiency stresses on the seeds and was carried out according to Barla-Szabó and Dolinka CSVT (Complex Stressing Vigour Test). For a single test, two hundred seeds were soaked for 48 hours at 25° C. and another 48 hours at 5° C in 150 ml distilled water containing the active agent in 10 mg/l concentration. Following the 96 hours of soaking, the seeds were further germinated between rolled wet paper for 96 hours at 25° C. There were 25 seeds in each roll, the rolls were placed vertically into containers and covered with a plastic bag in order to reduce evaporation. During the whole procedure the seeds were kept in darkness.
(§2) At the end of the experiment the number of normally developing and ungerminated seeds were recorded. The length of the normal seedlings was measured and the average length of the five longest seedlings was calculated. Seedlings longer than 0.33 times the average length of the five longest seedlings were considered to be of high vigour, and low vigour seedlings were shorter than this length.
When applying the CSVT test, the following results were obtained (Table 4.).

bean cv. Seaway = assay: Frost tolerance of beans; format: in vivo; details: watering, 10 mg/l; −2° C. for 8 hours
Protocol: Seedlings of bean cv. Seaway were cultivated under normal conditions for the first two weeks, then they were treated with 10 mg/liter and 100 mg/liter concentration solutions of the examined active agents 2 and 1 days before the initiation of the frost tolerance experiments. In the experiment, the plants were kept at −2° C. for 8 hours, then grew under normal conditions for I week, and the survival ratio was determined. 4 trays were used for each experiment and 6 seeds were planted in each tray.

[1] = test system: maize of high chilling tolerance (HT) population; assay: CSVT, maize population of high chilling tolerance (HT); format: in vivo
Protocol: as §1, §2
(§3) In the case of a further experiment with maize of low chilling tolerance (LT) and high chilling tolerance (HT) populations [Ref: P. Landi, E. Frascaroli, A. Lovato; EUPHYTICA 64 21-29 (1992)], the following positive effects were found (Table 3.).

bean plants (cv. Seaway) = assay: Drought tolerance of beans, part b (7 days hardening); format: in vivo; details: 7 days without water, 10 mg/liter and 100 mg/liter solution named, table does not say which
Source text: Based on the experiences of our preliminary experiments, the plants were hardened before the application of the active agent by withholding the water for a few days, until the first signs of withering appeared. Then the plants were watered and the active agent was either dissolved in the water, or sprayed to the plants directly. Afterwards, the plants were subjected to different periods of drought according to the given experiment, watered again, and after a week-long regeneration period, the survival ratio was determined.
b) In this experiment, bean plants (cv. Seaway) were hardened for 7 days instead of the 5 days described in Part a. Then a 10 mg/liter and 100 mg/liter concentration solution of the active agent was applied two times a day for two days. Then 7 days without water followed, and after a week-long regeneration period, the results of the experiment were evaluated.

Mo 17 inbred maize line = assay: CSVT (Complex Stressing Vigour Test), seeds soaked in active agent, Mo 17 maize; format: in vivo; details: seeds soaked in 10 mg/l active agent, * = significant vs control P < 0.05
Protocol: as §1, with “darkness. At the end of the experiment the number of normally developing and ungerminated seeds were recorded. The length of the normal seedlings was measured and the average length of the five longest seedlings was calculated. Seedlings longer than 0.33 times the average length of the five longest seedlings were considered to be of high vigour, and low vigour seedlings were shorter than this length.” for “darkness.”

[2] = test system: maize of low chilling tolerance (LT) population; assay: CSVT, maize population of low chilling tolerance (LT); format: in vivo
Protocol: as §1, §2, §3

green peppers = assay: CSVT, green peppers; format: in vivo, pepper
Protocol: as §1, §2
Under the circumstances of the CSVT test, they increased the length of the sprouts and the roots along with the proportion of the high vigour seedlings. […]

HMv09 inbred maize line = assay: CSVT, seeds soaked in active agent, HMv09 maize; format: in vivo; details: seeds soaked in 10 mg/l active agent
Protocol: as §1, with “darkness. At the end of the experiment the number of normally developing and ungerminated seeds were recorded. The length of the normal seedlings was measured and the average length of the five longest seedlings was calculated. Seedlings longer than 0.33 times the average length of the five longest seedlings were considered to be of high vigour, and low vigour seedlings were shorter than this length.” for “darkness.”

Soybean seeds = assay: Pearling of soybean seeds, then CSVT; format: in vivo
Protocol: as §1, §2
Soybean seeds are treated with a pearling agent, which contains 1 mg/ml of N-[3-(1-piperidinyl)propoxy]-3-nitro-benzimidoyl-chloride monohydrochloride (Compound 3) in a 5% aqueous polyvinylalcohol solution. 100 seeds and 1 ml of pearling agent are filled into a glass vessel and while the vessel is rotated, the seeds are coated with the agent and then it is left to dry. For seeds treated this way, we obtained the following results when placed under the conditions of the CSVT test described in Example 7.

[3] = 100 seeds pearled with 1 ml of 1 mg/ml in 5% PVA

`Cl.O=[N+]([O-])c1cccc(C(Cl)=NOCCCN2CCCCC2)c1` [Compound 3, N-[3-(1-piperidinyl)propoxy]-3-nitro-benzimidoyl-chloride monohydrochloride] was tested, and the “Survival (%)” value (soybean cv. Bólyi 44) was 33* %, the “Ratio of high vigour plants (%)” value (McCall soybeans) was 46* % and the “Survival (%)” value (bean cv. Seaway) was 40* %. The “Ratio of high vigour plants %, HT” value [1] was 94* %, the “Survival (%)” value (bean plants (cv. Seaway)) was 39* % and the “Ratio of high vigour plants (%)” value (Mo 17 inbred maize line) was 28* %. The “Ratio of high vigour plants %, LT” value [2] was 88* %, the “Ratio of high vigour plants (%)” value (green peppers) was 45* % and the “Ratio of high vigour plants (%)” value (HMv09 inbred maize line) was 40* %. For the same molecule, the “Ratio of high vigour plants (%), root” value (Soybean seeds; [3]) was 58* %, the “Ratio of high vigour plants (%), sprout” value (Soybean seeds; [3]) was 63* % and the “effect on ratio of high vigour plants and length of sprouts and roots” value (Soybean seeds; PVA solution containing Compound 3 as pearling agent) was “increase the ratio of high vigour plants significantly”.
